Ends that are not written are not given here.
Assays:
[1] = test system: Adiponectin expression in WT adipocytes; test: Adiponectin expression in adipocytes treated with osteocalcin (real time PCR); assay type: cell-based, mouse; conditions: wild type adipocytes treated for 4 hours, real time PCR, vs vehicle
Description: FIG. 7A-O. Esp−/− Mice Are a Model of Increased Osteocalcin Bioactivity. (FIGS. 7A-G) Comparison between 6-week-old WT, Esp−/, Ocn+/−, and Esp−/−; Ocn+/− mice. (FIG. 7A) Blood glucose levels. (FIG. 7B) Serum insulin levels. (FIG. 7C) Serum adiponectin levels. (FIG. 7D) GTT. (FIG. 7E) ITT. (FIG. 7F) GSIS test. (FIG. 7G) Quantification of the number of Ki67-immunoreactive cells in pancreatic islets. […] (FIG. 7K) Expression of Adiponectin in WT adipocytes cultured in presence of vehicle or of 1 ng/ml of commercially available carboxylated osteocalcin (Immunotopics) or bacterially produced uncarboxylated osteocalcin. (FIG. 7L) Expression of Insulin and Cyclin D1 in WT islets cultured in presence of 0.3 ng/ml of bacterially produced uncarboxylated osteocalcin or vehicle. (FIG. 7M) Metabolic parameters and total serum osteocalcin levels in control and obese patients. (FIG. 7N-O) Quantification of carboxylated osteocalcin (HA-bound osteocalcin) in control and obese patients. In (FIGS. 7A)-(C) and (FIGS. G)-(L): *p<0.05 versus WT (Student's t test); in (FIG. D)-(F), °p<0.05 versus WT and *p % 0.001 versus WT (ANOVA followed by post hoc analysis).
FIG. 15. […] Wt adipocytes were treated for 4 hours with recombinant full-length osteocalcin (1-46) or a truncated form (1-36) or vehicle. Adiponectin expression was then quantified by real time PCR.
Primary adipocytes were isolated from epididymal fat pads by collagenase digestion. Briefly, minced adipose tissue was digested by 1 mg/ml collagenase P in KRP Buffer (20 mM HEPES, 120 mM NaCl, 6 mM KCl, 1.2 mM MgSO4, 1 mM CaCl2, 0.6 mM Na2HPO4, 0.4 mM NaH2PO4, 2.5 mM D-glucose, 2% BSA, pH 7.4) for 1 h at 37° C. The isolated cells were washed twice with KRP Buffer before being cultured in αMEM/1% FBS at 37° C. in 5% CO2.
Gene expression analyses. All gene expression analyses were performed using real time PCR. DNAse I-treated total RNA was converted to cDNA with the SuperScript III kit (Invitrogen). Real-time PCR were performed using the Taq SYBR Green Supermix with ROX (Biorad) on an MX3000 instrument (Stratagene); beta-actin amplification was used as an internal reference for each sample. All primers were from SuperArray.
A fragment of uncarboxylated osteocalcin is biologically active. Experiments were performed to test whether truncated osteocalcin was as effective as full-length uncarboxylated osteocalcin in stimulating adiponectin secretion from mouse adipocytes in vitro. Wild type adipocytes were treated for 4 hours with recombinant full-length osteocalcin (1-46) or a truncated form (1-36) (having a deletion of the first ten amino acids from the C-terminal end) or vehicle. Adiponectin expression was then quantified by real time PCR. […]

[2] = Osteocalcin subcutaneous infusion in wt mice: body weight and gonadal fat pad mass; assay type: in vivo, mouse
Description: (FIG. 13A) Indicated doses of recombinant osteocalcin or PBS were infused subcutaneously for 28 days in wt mice. Body weight was recorded at indicated days. (FIG. 13B) Gonadal fat pad mass was measured after 28 days.
In another in vivo experiment, the effect of uncarboxylated osteocalcin on body weight and fat pad mass was monitored (FIG. 13). Wild type mice were infused subcutaneously for 28 days with PBS or uncarboxylated osteocalcin at 0.3, 1 or 3 ng/hour. […] (FIG. 13) Gonadal fat pad mass, measured after 28 days, decreased by about %18 with 3 ng/hour uncarboxylated osteocalcin treatment.

[3] = Osteocalcin subcutaneous infusion in wt mice: glycemia; assay type: in vivo, mouse; conditions: wild type mice, 0.3, 1 and 3 ng/hour subcutaneously for 28 days, vs PBS
Description: FIG. 10. […] Indicated doses of recombinant osteocalcin or PBS were infused subcutaneously for 28 days in wt mice. Blood glucose was measured at indicated days.
An in vivo experiment was conducted in which the effect of undercarboxylated osteocalcin on glycemia was monitored. Wild type mice were infused with 3 different amounts of mouse recombinant undercarboxylated osteocalcin or placebo (PBS) subcutaneously for 28 days (0.3, 1 and 3 ng/hour).

Substance: uncarboxylated osteocalcin: Recombinant mouse osteocalcin bacterially produced as GST fusion, cleaved with thrombin; completely undercarboxylated at all three sites (YLGASVPSPDPLEPTREQCELNPACDELSDQYGLKTAYKRIYGITI; not fully specified; ends and bridges not checked; UniProt P86546 50-95, looked up)
- increase of Adiponectin expression [1]: ~1.5 fold
- decrease of gonadal fat pad mass ([2]; 3 ng/hour, measured after 28 days): ~18%
- fat mass ([2]; indicated doses infused subcutaneously for 28 days (figure legend)): decreases fat mass
- gonadal fat pad mass ([2]; the other doses (0.3, 1 ng/hour), 28 days): did not significantly decrease fat pad mass
- body weight ([2]; wild type mice, 0.3, 1 or 3 ng/hour subcutaneously for 28 days, highest dose most effective): slightly reduced
- glycemia (blood glucose) ([3]; listed as recombinant osteocalcin): decreases glycemia
- glycemia (blood glucose) ([3]; listed as undercarboxylated osteocalcin): decreased glycemia

Source: US9746463B2 (THE TRUSTEES OF COLUMBIA UNIVERSITY IN THE CITY OF NEW YORK, priority 2006, dated 2017)
